Experimental data from patent US11873298B2, “Compounds and uses thereof” (JANSSEN PHARMACEUTICA NV, priority 2017, dated 2024).
Several values for one entry are separate records, joined by “and”; a condition that tells them apart may be missing. Equal values may be shown once.

How the values were obtained:
Assay type in all cases: cell-based
Ole1 = target: T1, Ole1 (Saccharomyces cerevisiae, UniProt P21147); assay: Growth inhibition of yeast strain expressing Ole1 as sole desaturase; conditions: yeast strain expressing Ole1 as sole desaturase
T1 construct: expressed in transfected cells; host or cells: S. cerevisiae ole1Δ strain (W303 pdr1Δ pdr3Δ background), plasmid pRS316 with TDH3 promoter and CYC1 terminator
T1 sequence (P21147 1-510): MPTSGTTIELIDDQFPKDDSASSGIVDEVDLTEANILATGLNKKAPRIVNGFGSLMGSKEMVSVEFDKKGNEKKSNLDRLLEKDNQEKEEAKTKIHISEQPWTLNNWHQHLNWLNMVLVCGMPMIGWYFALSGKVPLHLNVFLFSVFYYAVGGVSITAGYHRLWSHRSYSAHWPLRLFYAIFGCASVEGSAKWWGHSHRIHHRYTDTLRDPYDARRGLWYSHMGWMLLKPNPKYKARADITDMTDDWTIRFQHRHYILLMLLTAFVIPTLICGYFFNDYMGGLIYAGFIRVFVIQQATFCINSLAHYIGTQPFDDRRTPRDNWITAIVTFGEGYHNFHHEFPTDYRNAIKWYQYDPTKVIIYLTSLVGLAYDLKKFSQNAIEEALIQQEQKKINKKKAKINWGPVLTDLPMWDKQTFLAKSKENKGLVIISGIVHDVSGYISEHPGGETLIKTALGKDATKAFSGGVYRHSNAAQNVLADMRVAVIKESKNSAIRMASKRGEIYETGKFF
In short: (§1)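 Measured by optical density at 600 nm, growth of desaturase-dependent yeast (OLE1 deleted; human SCD1, human SCD5 or yeast Ole1 supplied from plasmid) was scored after 24 h (Ole1) or 40 h (SCD1, SCD5) at 30° C. in galactose media lacking uracil with DMSO-delivered compound.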

SCD1 = target: T2, SCD1 (Homo sapiens, UniProt O00767); assay: Growth inhibition of humanized yeast strain expressing SCD1 as sole desaturase; conditions: humanized yeast strain expressing SCD1
T2 construct: host or cells: S. cerevisiae ole1Δ strain (W303 pdr1Δ pdr3Δ background), plasmid pRS316 with TDH3 promoter and CYC1 terminator
T2 sequence (O00767 1-359): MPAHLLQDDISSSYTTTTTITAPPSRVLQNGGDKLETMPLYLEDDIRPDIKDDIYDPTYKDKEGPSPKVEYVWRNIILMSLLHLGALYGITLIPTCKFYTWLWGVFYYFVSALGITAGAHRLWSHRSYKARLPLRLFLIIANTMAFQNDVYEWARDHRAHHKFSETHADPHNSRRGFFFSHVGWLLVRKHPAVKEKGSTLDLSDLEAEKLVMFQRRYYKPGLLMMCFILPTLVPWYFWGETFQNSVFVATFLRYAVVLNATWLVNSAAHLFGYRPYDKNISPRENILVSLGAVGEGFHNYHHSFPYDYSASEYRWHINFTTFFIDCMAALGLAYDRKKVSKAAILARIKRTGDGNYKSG
In short: as §1

SCD5 = target: T3, SCD5 (Homo sapiens, UniProt Q86SK9); assay: Growth inhibition of humanized yeast strain expressing SCD5 as sole desaturase; conditions: humanized yeast strain expressing SCD5
T3 construct: host or cells: S. cerevisiae ole1Δ strain (W303 pdr1Δ pdr3Δ background), plasmid pRS316 with TDH3 promoter and CYC1 terminator
T3 sequence (Q86SK9 1-330): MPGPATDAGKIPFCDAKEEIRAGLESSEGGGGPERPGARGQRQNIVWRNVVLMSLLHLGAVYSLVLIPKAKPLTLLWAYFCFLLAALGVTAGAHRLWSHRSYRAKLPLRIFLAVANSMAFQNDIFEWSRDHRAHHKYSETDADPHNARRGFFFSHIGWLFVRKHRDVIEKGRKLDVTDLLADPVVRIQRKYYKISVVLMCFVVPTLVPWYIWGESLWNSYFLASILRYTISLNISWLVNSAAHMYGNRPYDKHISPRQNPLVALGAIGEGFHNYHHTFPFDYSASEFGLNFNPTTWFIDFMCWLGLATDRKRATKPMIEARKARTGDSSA
In short: as §1

Structure (SMILES)	IC50 (Ole1)	OLE1 % Max Inhibition (Ole1)	SCD1 % Max Inhibition (SCD1)	IC50 (SCD5) [µM]	SCD5 % Max Inhibition (SCD5)	IC50 (SCD1) [µM]
CCc1c2ccc(-c3noc(C4CCN(C(=O)CNC(=O)c5ccccc5)CC4)n3)cc2nn1C [Compound 321]	> 45 µM	14.0%	71.6%	> 45	74.1%	–
COc1cccc(-c2noc(C3CC(=O)N(c4ccc(C)c(C)c4)C3)n2)c1 (stereo not drawn) [Compound 489]	> 45 µM	94.30%	68.84%	41.1	61.11%	–
Cc1cc(N2CC(C(=O)N3CCC(c4nc(-c5ccc6c(C)nn(C)c6c5)no4)CC3)CC2=O)ccn1 (stereo not drawn) [Compound 183]	> 45 µM	101.71%	101.67%	> 45	84.88%	> 45
Cn1c(=O)n(C)c2cc(-c3noc(C4CCN(C(=O)[C@@H](CO)NC(=O)c5ccccc5)CC4)n3)ccc21 [Compound 214]	> 45 µM	15.08%	65.73%	> 45	74.58%	–
CC(C)n1ncc2ccc(-c3noc(C4CCN(C(=O)C5CC(=O)N(c6ccccc6)C5)CC4)n3)cc21 (stereo not drawn) [Compound 174]	> 45 µM	89.17%	79.07%	> 45	10.95%	> 45
Cc1nn(C)c2cc(-c3noc(C4CCN(C(=O)CNC(=O)c5cc(F)ccc5C(F)(F)F)CC4)n3)ccc12 [Compound 304]	> 45 µM	14.7%	74.9%	> 45	51.6%	–
Cc1nn(C)c2cc(-c3noc(C4CCN(C(=O)CC5CC5)CC4)n3)ccc12 [Compound 264]	> 45 µM	15.52%	56.37%	> 45	7.97%	40.8
Cc1nn(C(C)C)c2cc(-c3noc(C4CCN(C(=O)CNC(=O)c5ccccc5)CC4)n3)ccc12 [Compound 281]	33.8 µM and > 45 µM	60.23% and 32.09%	84.97% and 68.90%	> 45	18.03% and 12.39%	≥ 45
Cc1nn(C)c2cc(-c3noc(N4CCC(C(=O)N5CCO[C@@H](c6ccccc6)C5)CC4)n3)ccc12 [Compound 210]	> 45 µM	2.27%	30.48%	> 45	3.39%	> 45
O=C(c1ccccc1)N1CCC(c2nc(N3CC4(COC4)C3)no2)CC1 [Compound 334]	> 45 µM	84.4%	49.3%	> 45	66.7%	–
Cc1nn(C)c2cc(-c3noc(C4CCN(C(=O)C5CC(=O)N(c6cccc(C#N)c6)C5)CC4)n3)ccc12 (stereo not drawn) [Compound 168]	> 45 µM	4.90% and 8.34%	114.58% and 74.07%	> 45	–	> 45
COc1ccc(-c2nccc(C3CCN(C(=O)CNC(=O)c4ccccc4)CC3)n2)cc1OC [Compound 221]	> 45 µM	113.54%	100.56%	> 45	93.18%	> 45
CC(C)c1cccc(C(=O)N2CCC(c3nc(-c4ccc5cnn(C)c5c4)no3)CC2)c1 [Compound 205]	> 45 µM	94.02%	31.70%	> 45	1.01%	> 45
CC(C)c1ccc(C(=O)N2CCC(c3nc(C(=O)Nc4ccnn4C)no3)CC2)cc1 [Compound 287]	> 45 µM	93.89%	72.51%	> 45	66.81%	–
CC(C)(CO)n1ncc2ccc(-c3noc(C4CCN(C(=O)C5CC(=O)N(c6ccccc6)C5)CC4)n3)cc21 (stereo not drawn) [Compound 203]	> 45 µM	100.03%	84.83%	> 45	80.12%	> 45
Cc1ccc(N2CC(C(=O)N3CCC(c4nc(N5CC6(COC6)C5)no4)CC3)CC2=O)nc1 (stereo not drawn) [Compound 333]	> 45 µM	81.2%	55.6%	> 45	62.3%	> 45
Cc1c2cc(-c3noc(C4CCN(C(=O)c5ccc(C(C)C)cc5)CC4)n3)ccc2nn1C [Compound 318]	> 45 µM	89.1%	77.6%	> 45	33.7%	> 45
Cc1nn(C)c2cc(-c3noc(N4CCN(C(=O)c5cccc(F)c5)CC4)n3)ccc12 [Compound 270]	41.8 µM	63.00%	82.42%	> 45	12.30%	–
Cc1nn(C)c2cc(-c3noc(C4CCN(C(=O)[C@H]5CC(=O)N(c6ccccc6)C5)CC4(F)F)n3)ccc12 (stereo partly drawn) [Compound 241]	> 45 µM	6.15%	91.61%	> 45	16.97%	> 45
CCOc1ccc(-c2noc(C3CCN(C(=O)CN4Cc5cccc(F)c5C4=O)CC3)n2)cc1OC [Compound 178]	> 45 µM	7.39%	114.07%	> 45	85.67%	> 45
CCn1nc2cc(-c3noc(C4CCN(C(=O)CNC(=O)c5ccccc5)CC4)n3)ccc2c1C [Compound 320]	> 45 µM	28.5%	74.7%	> 45	76.0%	–
